Laboratory results reported in patent US6387886B1, “Method for the treatment of severe chronic bronchitis (bronchietasis) with an aerosolized antibiotic” (Chiron Corporation, priority 1998, dated 2002).
Like-named read-outs stand apart in the source and are kept apart here.

Tests used:
P. aeruginosa isolates = conditions: initial sputum cultures, CF patients, 1993; cited from earlier work
P. aeruginosa [1] = experiment: Placebo-controlled clinical study in bronchiectasis: sputum P. aeruginosa density and microbiological response; format: in vivo, Pseudomonas aeruginosa
Protocol: A placebo-controlled, double-blind, randomized study was conducted to evaluate the microbiological efficacy and safety of inhaled tobramycin for treatment of patients with bronchiectasis and P. aeruginosa. […] The change in P. aeruginosa density in sputum was measured at Weeks 2, 4, and 6 (2 weeks post-treatment). Clinicians assessed patients' general medical condition at Week 6. Safety parameters included adverse events, serum chemistry, and airway reactivity. […] At Week 6, P. aeruginosa was eradicated in 35% of TSI-treated patients but was detected in all placebo patients. […] Few patients withdrew due to adverse events. TSI holds promise as a therapy for patients with bronchiectasis. The study was conducted as follows: […] Patients were excluded if they had CF, a diagnosis of allergic bronchopulmonary aspergillosis, an acute pulmonary process requiring medical intervention as indicated by a new infiltrate on a chest radiograph, significant recent hemoptysis, or had received antibiotics within two weeks of the screening visit. Eligible patients were randomly assigned in blocks of two to parallel groups at each study center to receive either TSI or placebo. […] At all study visits, vital signs were measured, adverse events were recorded, and a sputum sample was collected for quantitative microbiology and susceptibility testing. […] At Week 4, airway reactivity was again monitored, a medical exam was performed, and laboratory tests that were performed at screening were repeated. […] The primary efficacy endpoint was the change in P. aeruginosa density (expressed as log10 CFU/g sputum) from baseline to Week 4. […] (2) an investigator's assessment of change in the patient's general medical condition (“improved” or “not improved”) throughout the study (recorded at Week 6); (3) the percent change in FEV1% predicted and in forced vital capacity (FVC) % predicted from Week 0 to Week 4. […] P. aeruginosa was considered eradicated if it was not detected at Week 6 or if the patient was unable to produce a sputum sample at Week 6 and P. aeruginosa was not isolated at Week 4. […]

Gram-negative bacteria = conditions: cited from earlier work
P. aeruginosa [2] = conditions: CF patients, 300 mg inhaled twice daily, cited from earlier work
[3] = purulent sputum; cited from earlier work
P. aeruginosa [4] = conditions: cited from earlier work
[5] = 71 CF patients, 600 mg tid aerosolized

Compound: NC[C@H]1O[C@H](O[C@H]2[C@H](O)[C@@H](O[C@H]3O[C@H](CO)[C@@H](O)[C@H](N)[C@H]3O)[C@H](N)C[C@@H]2N)[C@H](N)C[C@@H]1O [tobramycin]
- isolates with MICs <16 μg/mL (P. aeruginosa isolates): 90%
- isolates with MICs ≦128 μg/mL (P. aeruginosa isolates): 98%
- antimicrobial efficacy relative to cystic fibrosis patients (P. aeruginosa [1]; bronchiectasis versus cystic fibrosis): greater than 10,000 fold
- factor by which colony forming units (CFU) of P. aeruginosa are decreased (P. aeruginosa [1]; in some patients, endobronchial administration): ≥ 10^6
- bronchiectasis patients with complete eradication (P. aeruginosa [1]; summary statement): 20%
- concentrations effective in inhibiting the growth of many Gram-negative bacteria (Gram-negative bacteria): < 4 µg/mL
- average decrease in P. aeruginosa density (P. aeruginosa [2]; 28 days on/28 days off, Week 0 to Week 20): 0.8 log10
- average decrease in P. aeruginosa density (P. aeruginosa [2]; Week 0 to Week 4): 1.9 log10
- higher concentrations required in the sputum to overcome inhibitory effects [3]: 5-10 ×
- spirometry (P. aeruginosa [4]; [5]): improved spirometry
- sputum density of P. aeruginosa (P. aeruginosa [4]; [5]): significant reduction
- emergence of P. aeruginosa strains highly resistant to tobramycin (MIC >128 μg/mL) (P. aeruginosa [4]; versus placebo): comparable in the placebo and treatment groups
